Converted amounts (≈) assume the structure as drawn.
How the values were obtained:
[1] = system: Vibrio cholerae neuraminidase; conditions: literature; cited from earlier work
[2] = biological target: sheep neuraminidase; test: In vitro inhibition of sheep neuraminidase; assay type: biochemical; conditions: pH 4.5
[3] = system: influenza A/Singapore/1/57 (H2N2); test: microbe, parasite or virus in culture; assay type: cell-based; conditions: H2N2, MDCK, 72 h, read-out: IC50 Plaque Reduction, Influenza A
[4] = system: Influenza B/Victoria/102/85; test: microbe, parasite or virus in culture; assay type: cell-based; conditions: MDCK, 72 h, read-out: IC50 Plaque Reduction, Influenza B
[5] = system: H2N2 influenza A virus (A/Sing/1/57); assay type: in vivo, mice
[6] = system: influenza virus; test: microbe, parasite or virus in culture; assay type: cell-based; conditions: unidentified influenza virus, read-out: IC50 plaque reduction
[7] = Effective dose in vivo (statement in description); conditions: compared with DANA

For `CC(=O)NC1C(O)CC(C(=O)O)OC1C(O)C(O)CO` (centres unmarked), the “inhibition of Vibrio cholerae neuraminidase” value [1] is given as “did not inhibit”.

Work on `CC(=O)N[C@H]1[C@H]([C@H](O)[C@H](O)CO)OC(C(=O)O)=C[C@@H]1N=C(N)N` [Compound 7, Ammonium 5-Acetamido-4-guanidino-2,3,4,5-tetradeoxy-D-glycero-D-galacto-non-2-enopyranosonate] yielded a Ki [2] of over 10000 µM, an IC50 [3] of 1.6 µM and an IC50 [4] of 1.6 µM. The “% AUC (lung virus titre, compared to untreated mice)” value ([5]; Experiment 2, 12.5 mg/kg intranasal, days 1-3) was 0.03% and the “titre of virus in lung tissue” value ([5]; intranasal, before and during challenge, 1 to 3 days after infection) was “reduced the titre of virus in lung tissue”.

With `COC(=O)C1=C[C@H](O)[C@@H](NC(C)=O)[C@H]([C@H](O)[C@H](O)CO)O1` [methyl ester of DANA] the IC50 [6] was 50 to 100 µg/mL (≈ 164 to 328 µM) and the “effective dose, in words” value [7] was “effective at proportionally higher dose”.

Reference: patent publication US5648379A (priority 1990, dated 1997)
